Test results from US20250122218A1, “MODULATORS OF CYSTIC FIBROSIS TRANSMEMBRANE CONDUCTANCE REGULATOR” (Vertex Pharmaceuticals Incorporated, priority 2022, published 2025).

Target: T1, CFTR in F508del/MF-HBE cells (Homo sapiens, UniProt P13569, DEL508-508)
T1 construct: human bronchial epithelial (HBE) cells derived from CF subjects heterozygous for F508del and a minimal function CFTR mutation; endogenous in cells; host or cells: primary human bronchial epithelial cells from CF subjects (F508del/MF-HBE)
Test: Ussing chamber assay of CFTR-mediated short-circuit currents (identification of potentiator compounds)
Format: cell-based
Conditions: potentiator incubated 18-24 hours at 37° C. in combination with 10 μM corrector, in the presence of 20% human serum, CFTR-mediated ISC
Method: Ussing chamber experiments were performed using human bronchial epithelial (HBE) cells derived from CF subjects heterozygous for F508del and a minimal function CFTR mutation (F508del/MF-HBE) and cultured as previously described (Neuberger T, Burton B, Clark H, Van Goor F; Methods Mol. Biol. 2011:741:39-54). After four days the apical media was removed, and the cells were grown at an air liquid interface for >14 days prior to use.
To isolate the CFTR-mediated short-circuit (ISC) current, F508del/MF-HBE grown on Costar® Snapwell™ cell culture inserts were mounted in an Ussing chamber and the transepithelial ISC was measured under voltage-clamp recording conditions (Vhold=0 mV) at 37° C. The basolateral solution contained (in mM) 145 NaCl, 0.83 K2HPO4, 3.3 KH2PO4, 1.2 MgCl2, 1.2 CaCl2), 10 Glucose, 10 HEPES (pH adjusted to 7.4 with NaOH) and the apical solution contained (in mM) 145 NaGluconate, 1.2 MgCl2, 1.2 CaCl2), 10 glucose, 10 HEPES (pH adjusted to 7.4 with NaOH) and 30 μM amiloride to block the epithelial sodium channel. Forskolin (20 μM) was added to the apical surface to activate CFTR, followed by apical addition of a CFTR inhibitor cocktail consisting of BPO, GlyH-101 and CFTR inhibitor 172 (each at 20 μM final assay concentration) to specifically isolate CFTR currents. The CFTR-mediated ISC (μA/cm^2) for each condition was determined from the peak forskolin response to the steady-state current following inhibition.
The activity of the CFTR potentiator compounds on the CFTR-mediated ISC was determined in Ussing chamber studies as described above. The F508del/MF-HBE cell cultures were incubated with the potentiator compounds at a range of concentrations in combination with 10 μM (14S)-8-[3-(2-{dispiro[2.0.2.1]heptan-7-yl}ethoxy)-1H-pyrazol-1-yl]-12,12-dimethyl-2λ^6-thia-3,9,11,18,23-pentaazatetracyclo[17.3.1.111,14.05,10]tetracosa-1(22),5,7,9,19(23),20-hexaene-2,2,4-trione for 18-24 hours at 37° C. and in the presence of 20% human serum. The concentration of potentiator compounds and (14S)-8-[3-(2-{dispiro[2.0.2.1]heptan-7-yl}ethoxy)-1H-pyrazol-1-yl]-12,12-dimethyl-2λ^6-thia-3,9,11,18,23-pentaazatetracyclo[17.3.1.111,14.05,10]tetracosa-1(22),5,7,9,19(23),20-hexaene-2,2,4-trione used during the 18-24 hours incubations was kept constant throughout the Ussing chamber measurement of the CFTR-mediated ISC to ensure compounds were present throughout the entire experiment. The efficacy and potency of the putative F508del potentiators was compared to that of the known potentiator, ivacaftor (N-[2,4-bis(1,1-dimethylethyl)-5-hydroxyphenyl]-1,4-dihydro-4-oxoquinoline-3-carboxamide).

T1 sequence (P13569 with tags, fused parts or gaps DEL508-508): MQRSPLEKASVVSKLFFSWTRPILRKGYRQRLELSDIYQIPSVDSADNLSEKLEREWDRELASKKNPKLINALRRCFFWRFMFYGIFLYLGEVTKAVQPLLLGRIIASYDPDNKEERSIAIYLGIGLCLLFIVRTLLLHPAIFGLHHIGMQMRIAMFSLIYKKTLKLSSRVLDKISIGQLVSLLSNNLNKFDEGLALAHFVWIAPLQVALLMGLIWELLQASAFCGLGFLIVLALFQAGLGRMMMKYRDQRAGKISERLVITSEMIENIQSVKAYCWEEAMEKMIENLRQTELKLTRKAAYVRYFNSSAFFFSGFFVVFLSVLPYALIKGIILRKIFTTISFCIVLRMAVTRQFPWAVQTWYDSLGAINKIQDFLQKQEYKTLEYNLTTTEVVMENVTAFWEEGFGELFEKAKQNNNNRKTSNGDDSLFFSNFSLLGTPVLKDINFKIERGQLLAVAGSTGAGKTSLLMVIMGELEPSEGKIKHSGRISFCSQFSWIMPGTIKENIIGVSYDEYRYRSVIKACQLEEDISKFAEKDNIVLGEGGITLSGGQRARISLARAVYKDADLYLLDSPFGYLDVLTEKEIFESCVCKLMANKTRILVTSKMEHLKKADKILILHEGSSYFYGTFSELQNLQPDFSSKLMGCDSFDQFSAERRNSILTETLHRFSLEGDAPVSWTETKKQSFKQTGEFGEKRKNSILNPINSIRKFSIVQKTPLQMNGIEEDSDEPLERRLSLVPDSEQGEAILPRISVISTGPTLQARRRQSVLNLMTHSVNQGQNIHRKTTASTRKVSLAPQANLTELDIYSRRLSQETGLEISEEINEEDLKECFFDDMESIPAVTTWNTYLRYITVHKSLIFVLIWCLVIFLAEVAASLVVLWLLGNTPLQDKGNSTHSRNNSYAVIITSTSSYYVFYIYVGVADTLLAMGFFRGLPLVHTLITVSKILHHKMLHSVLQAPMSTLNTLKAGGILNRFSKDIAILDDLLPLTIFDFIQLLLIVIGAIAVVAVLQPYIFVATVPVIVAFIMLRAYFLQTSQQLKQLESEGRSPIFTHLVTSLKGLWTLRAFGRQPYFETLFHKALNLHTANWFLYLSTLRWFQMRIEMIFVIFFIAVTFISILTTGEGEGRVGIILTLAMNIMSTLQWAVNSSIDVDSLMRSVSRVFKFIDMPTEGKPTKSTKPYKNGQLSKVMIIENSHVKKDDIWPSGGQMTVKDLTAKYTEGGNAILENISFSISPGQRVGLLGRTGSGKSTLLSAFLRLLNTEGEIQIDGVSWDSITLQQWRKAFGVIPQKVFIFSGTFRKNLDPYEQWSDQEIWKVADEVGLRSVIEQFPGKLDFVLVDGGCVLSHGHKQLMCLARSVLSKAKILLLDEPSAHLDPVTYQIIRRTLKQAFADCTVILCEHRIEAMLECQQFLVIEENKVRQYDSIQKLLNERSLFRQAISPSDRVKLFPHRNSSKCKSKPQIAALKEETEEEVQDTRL

| EC50 [nM] | Compound |
| --- | --- |
| < 500 | Nc1cc(C(F)(F)F)c2nc1-c1nnc(o1)C(O)(C(F)(F)F)c1cc(ccc1F)CCCN(C1CC(F)(F)C1)C2=O (single isomer, unassigned) [Compound 202, 20-amino-15-(3,3-difluorocyclobutyl)-8-fluoro-6-hydroxy-6,18-bis(trifluoromethyl)-23-oxa-3,4,15,21-tetraazatetracyclo [15.3.1.12,5.17,11] tricosa 1(21),2,4,7(22),8,10, 17,19-octaen-16-one] |
| < 500 | Nc1cc(C(F)(F)F)c2nc1-c1nnc(o1)C(O)(C(F)(F)F)c1cc(ccc1F)CCCN(C1CC(F)(F)C1)C2=O (single isomer, unassigned) [Compound 203, 20-amino-15-(3,3-difluorocyclobutyl)-8-fluoro-6-hydroxy-6,18-bis(trifluoromethyl)-23-oxa-3,4,15,21-tetraazatetracyclo [15.3.1.12,5.17,11] tricosa 1(21),2,4,7(22),8,10, 17,19-octaen-16-one] |
| < 500 | CC(C)N1CCCCCC(O)(C(F)(F)F)C2=NN=C(O2)c2nc(c(C(F)(F)F)cc2N)C1=O (single isomer, unassigned) [Compound 204, 17-amino-6-hydroxy-12-isopropyl-6,15-bis(trifluoromethyl)-19-oxa-3,4,12,18-tetrazatricyclo [12.3.1.12,5] nonadeca-1(18),2,4,14,16-pentaen-13-one] |
| > 1000 | CC(C)N1CCCCCC(O)(C(F)(F)F)C2=NN=C(O2)c2nc(c(C(F)(F)F)cc2N)C1=O (single isomer, unassigned) [Compound 205, 17-amino-6-hydroxy-12-isopropyl-6,15-bis(trifluoromethyl)-19-oxa-3,4,12,18-tetrazatricyclo [12.3.1.12,5] nonadeca-1(18),2,4,14,16-pentaen-13-one] |
| < 500 | Nc1cc(C(F)(F)F)c2nc1-c1nnc(o1)C(O)(C(F)(F)F)CCCCCN(CC(F)(F)F)C2=O (single isomer, unassigned) [Compound 206, 17-amino-6-hydroxy-12-(2,2,2-trifluoroethyl)-6,15-bis(trifluoromethyl)-19-oxa-3,4,12,18-tetrazatricyclo [12.3.1.12,5] nonadeca-1(18),2,4,14,16-pentaen-13-one] |
| > 1000 | Nc1cc(C(F)(F)F)c2nc1-c1nnc(o1)C(O)(C(F)(F)F)CCCCCN(CC(F)(F)F)C2=O (single isomer, unassigned) [Compound 207, 17-amino-6-hydroxy-12-(2,2,2-trifluoroethyl)-6,15-bis(trifluoromethyl)-19-oxa-3,4,12,18-tetrazatricyclo [12.3.1.12,5] nonadeca-1(18),2,4,14,16-pentaen-13-one] |
| < 500 | CC(C)(C)c1ccc(C2(N3CCCCCC(O)(C(F)(F)F)C4=NN=C(O4)c4nc(c(C(F)(F)F)cc4N)C3=O)CC2)cc1 (single isomer, unassigned) [Compound 227, 17-amino-12-[1-(4-tert-butylphenyl)cyclo-propyl]-6-hydroxy-6,15-bis(trifluoromethyl)-19-oxa-3,4,12,18-tetrazatricyclo [12.3.1.12,5] nonadeca-1(18),2,4,14,16-pentaen-13-one] |
| < 500 | CC(C)(C)c1ccc(C2(N3CCCCCC(O)(C(F)(F)F)C4=NN=C(O4)c4nc(c(C(F)(F)F)cc4N)C3=O)CC2)cc1 (single isomer, unassigned) [Compound 228, 17-amino-12-[1-(4-tert-butylphenyl)cyclo-propyl]-6-hydroxy-6,15-bis(trifluoromethyl)-19-oxa-3,4,12,18-tetrazatricyclo [12.3.1.12,5] nonadeca-1(18),2,4,14,16-pentaen-13-one] |

Further lines, the compound ahead of its results:

| Compound | EC50 [nM] |
| --- | --- |
| N#CC1CCCCc2ccc(F)c(c2)C(O)(C(F)(F)F)C2=NN=C(O2)c2nc1c(C(F)(F)F)cc2N (single isomer, unassigned) [Compound 67, 20-amino-8-fluoro-6-hydroxy-6,18-bis(trifluoromethyl)-23-oxa-3,4,21-triazatetracyclo[15.3.1.12,5.17,11]tricosa-1(21),2,4,7,9,11(22),17,19-octaene-16-carbonitrile] | < 500 |
| N#CC1CCCCc2ccc(F)c(c2)C(O)(C(F)(F)F)C2=NN=C(O2)c2nc1c(C(F)(F)F)cc2N (single isomer, unassigned) [Compound 68, 20-amino-8-fluoro-6-hydroxy-6,18-bis(trifluoromethyl)-23-oxa-3,4,21-triazatetracyclo[15.3.1.12,5.17,11]tricosa-1(21),2,4,7,9,11(22),17,19-octaene-16-carbonitrile] | < 500 |
| Nc1cc(C(F)(F)F)c2nc1-c1nnc(o1)C(F)(C(F)(F)F)CCCCCCC2=O (single isomer, unassigned) [Compound 71, 17-amino-6-fluoro-6,15-bis(trifluoromethyl)-19-oxa-3,4,18-triazatricyclo[12.3.1.12,5]nonadeca-1(18),2,4,14,16-pentaen-13-one] | > 1000 |
| CN1CCCCCC(O)(C(F)(F)F)C2=NN=C(O2)c2nc(c(C(F)(F)F)cc2N)C1=O (single isomer, unassigned) [Compound 72, 17-Amino-6-hydroxy-12-methyl-6,15-bis(trifluoromethyl)-19-oxa-3,4,12,18-tetrazatricyclo[12.3.1.12,5]nonadeca-1(18),2,4,14,16-pentaen-13-one] | < 500 |
| CN1CCCCCC(O)(C(F)(F)F)C2=NN=C(O2)c2nc(c(C(F)(F)F)cc2N)C1=O (single isomer, unassigned) [Compound 73, 17-amino-6-hydroxy-12-methyl-6,15-bis(trifluoromethyl)-19-oxa-3,4,12,18-tetrazatricyclo[12.3.1.12,5]nonadeca-1(18),2,4,14,16-pentaen-13-one] | > 1000 |
| Nc1cc(C(F)(F)F)c2nc1-c1nnc(o1)C(O)(C(F)(F)F)CCCCCN(Cc1ccccc1)C2=O (single isomer, unassigned) [Compound 74, 17-Amino-12-benzyl-6-hydroxy-6,15-bis (trifluoromethyl)-19-oxa-3,4,12,18-tetrazatricyclo [12.3.1.12,5] nonadeca-1(18),2,4,14,1 6-pentaen-13-one] | < 500 |
| Nc1cc(C(F)(F)F)c2nc1-c1nnc(o1)C(O)(C(F)(F)F)CCCCCN(C1CCC1)C2=O (single isomer, unassigned) [Compound 78, 17-Amino-12-cyclobutyl-6-hydroxy-6,15-bis (trifluoromethyl)-19-oxa-3,4,12,18-tetrazatricyclo [12.3.1.12,5] nonadeca-1(18),2,4,14,1 6-pentaen-13-one] | < 500 |
| CC1(C)CCC2CCCC[C@](O)(C(F)(F)F)C3=NN=C(O3)c3nc(c(C(F)(F)F)cc3N)C(=O)N21 (single isomer, unassigned) [Compound 114] | < 500 |
| CC1(C)CCC2CCCC[C@](O)(C(F)(F)F)C3=NN=C(O3)c3nc(c(C(F)(F)F)cc3N)C(=O)N21 (single isomer, unassigned) [Compound 115] | < 500 |
| N#Cc1cc(N)c2nc1C(=O)N(C1CC(F)(F)C1)CCCCCC(O)(C(F)(F)F)C1=NN=C2O1 (single isomer, unassigned) [Compound 197, 17-amino-12-(3,3-difluorocyclobutyl)-6-hydroxy-13-oxo-6-(trifluoromethyl)-19-oxa-3,4,12,18-tetrazatricyclo[12.3.1.12,5]nonadeca-1(18),2,4,14,16-pentaene-15-carbonitrile] | > 1000 |
| Nc1cc(C(F)(F)F)c2nc1-c1nnc(o1)C(O)(C(F)(F)F)CCCCN(C1CC(F)(F)C1)C2=O (single isomer, unassigned) [Compound 198, 16-amino-11-(3,3-difluorocyclobutyl)-6-hydroxy-6,14-bis(trifluoromethyl)-18-oxa-3,4,11,17-tetrazatricyclo[11.3.1.12,5]octadeca-1(17),2,4,13,15-pentaen-12-one] | < 500 |
| Nc1cc(C(F)(F)F)c2nc1-c1nnc(o1)C(O)(C(F)(F)F)CCCCN(C1CC(F)(F)C1)C2=O (single isomer, unassigned) [Compound 199, 16-amino-11-(3,3-difluorocyclobutyl)-6-hydroxy-6,14-bis(trifluoromethyl)-18-oxa-3,4,11,17-tetrazatricyclo[11.3.1.12,5]octadeca-1(17),2,4,13,15-pentaen-12-one] | > 1000 |
